Data set [1] has as its system cAMP accumulation in isolated rabbit corpus carvenosum tissue. Description: cAMP accumulation in isolated rabbit corpus carvenosum tissue (ELISA). The conditions noted are these: absence of NO donor, FIG. 2; for effect on the accumulation of cAMP levels: up to 20,000 nM. The format is cell-based, White New Zealand rabbits. How it is done: (§1) Method for Analysis of cGMP & cAMP Synthesis and Accumulation in Penile Tissues: White New Zealand rabbits were sacrificed. Excise the penises rapidly after killing the animals, remove epidermal & connective tissue. Dissect out and discard the urethra carefully. Cut the penises longitudinally into 2 equal strips and then laterally to give about 20–40 segments. Pool and incubate the segments of the corpus cavernosum in Dulbecco's minimum essential Medium (MEM) at room temperature for one hour to allow the tissues to recover from preparative handling. Effect of Drug on cGMP and cAMP Formation:
(§2) Place one penile segment in triplicate for each drug dose in 200 μl MEM. Place one penile segment in triplicate for each drug dose with 10 μM SNP (sodium nitroprusside) in 200 μl MEM. (in the case of cGMP). Incubate the tubes at 37° C. for 30 min, stop the reaction by adding 200 μl of 1 mol/l perchloric acid and sonicate for 5 min. Neutralize the aliquots with 0.5 mol/l K3PO4.3H2O to pH 6.2 (240 μl), centrifuge and take the supernatant in aliquots. Keep at 4° C. and assay for the concentrations of cAMP and cGMP in the extract using ELISA (enzyme linked immunosorbant assay). Preparation of Zero sample: Add 200 ul MEM, 200 ul 1M perchloric acid and 240 μl 0.5 mol/L K3PO4.3H2O in one tube.
(§3) The main concentrations were in the range 0–20,000 or 100,000 nM. A stock solution of 1 mM for both drugs were prepared in distilled water. Serial dilution were prepared in MEM giving working drug concentrations of 0, 1000, 4000, 8000, 10000, 20000 and 100000 nM. In the case of cGMP the tests were carried out with and without NO donor (SNP). For this purpose 10 μM SNP was included when necessary.

Data set [2] concerns male rats. The experiment in a line: Penile erection (responding rats, PEI, ED50) in male rats after oral administration. It counts as in vivo, rat. The following applies: for PEI (penile erection index) / responding rats % / Calculated ED50: male rats, oral; for PEI (penile erection index) / responding rats %: 10 rats used, 2 hours observation; for Calculated ED50: responding rats as a function of dose; for PEI (penile erection indexes) for selected molecules: Tables 4-6, dose not given. How it is done: The purpose of the study was to compare the biological activity of compound 1 of the present invention with that of sildenafil. In particular, the respective ED50 value (ED=effective dose), erection episodes and penile erection indexes of said compounds in the treatment of male rats were determined. The penile erection index is an established means of determining the erection promoting properties of a substance (see e.g. Benassi-Benelli, F., Ferari, F., and Pellegrini Quaratotti, B., Arch. Int. Pharmacodyn., 242, 241–247, (1979), and Ang. H. H., Sim, M. K., Pharm. Sci., 3, 17–119, (1997) and references cited therein).
In these experiments, compound 1 of the present invention and sildenafil were administered to male rats orally. The doses for sildenafil were 0.0781, 0.1562, 0.3125 and 0.625 mg/kg body weight, while doses for compound 1 of the present invention were 0.3, 0.6, 1, and 2 mg/kg body weight. Both sildenafil and compound 1 of the present invention were dissolved in distilled water. Control animals were administered with water. During the experiments, the rats were placed in glass cages for observation and had free access to food and water. During 2 hours after administration of the investigated compound, the penile erection and self-sucking were monitored.

For data set [3], the system named is cGMP accumulation in isolated rabbit corpus carvenosum tissue. Description: cGMP accumulation in isolated rabbit corpus carvenosum tissue (ELISA), with and without NO donor SNP. The following applies: FIG. 1; for effect on the levels of cGMP: absence of NO donor, tested concentrations up to 100,000 nM. It counts as cell-based, White New Zealand rabbits. How it is done: as §1, §2, §3

The structures appear in SMILES notation. “Also recorded” adds a separate entry of the source.

As to `CCCc1nn(C)c2c(=O)[nH]c(-c3cc(S(=O)(=O)N4CCN(C)CC4)ccc3OCC)nc12` [Sildenafil, sildenafil, reference compound], the “concentration giving maximum increase in cAMP levels” value in data set [1] is given as 8000–10,000 nM. In data set [1], the “effect on the accumulation of cAMP levels” value is reported as “remarkable increase”. Besides, the “PEI (penile erection index)” value in data set [2] (dose 0.0781 mg/kg) was found to be 90; in data set [2] (dose 0.1562 mg/kg), 150; in data set [2] (dose 0.3125 mg/kg), 350; in data set [2] (dose 0.625 mg/kg), 980. Moreover, the responding rats % in data set [2] (dose 0.0781 mg/kg) was 30%; in data set [2] (dose 0.1562 mg/kg) it was 30%; in data set [2] (dose 0.3125 mg/kg) it was 50%; in data set [2] (dose 0.625 mg/kg) it was 70%. In data set [2], the “Calculated ED50” value is on record as “^(2)Calculated ED50 = 0.2473 mg/kg body weight”. In addition, the “concentration giving maximum increase of cGMP levels” value in data set [3] (NO donor added (10 μM SNP)) is “about 10,000 nM”. Also, the “effect on the levels of cGMP” value in data set [3] is “very little effect; also recorded: almost flat effect”.

The molecule `CN1CCN(S(=O)(=O)c2ccc3c(c2)OCO3)CC1` [Compound 1] yielded a melting point of 137 to 138 °C. In addition, the “effect on the accumulation of cAMP levels” value in data set [1] was “no effect at all”. In data set [2], the “PEI (penile erection indexes) for selected molecules” value is reported as 1015 and the “Calculated ED50” value is reported as “^(3)Calculated ED50 = 0.7822 mg/kg body weight”. Further, in data set [2] (dose 0.3 mg/kg), the “PEI (penile erection index)” value was 22.5 and the responding rats % was determined as 15%. Further, in data set [2] (dose 0.6 mg/kg), the “PEI (penile erection index)” value is given as 260 and the responding rats % came to 40%. Further, in data set [2] (dose 1.0 mg/kg), the “PEI (penile erection index)” value stood at 665 and the responding rats % is 70%. Moreover, in data set [2] (dose 2.0 mg/kg), the “PEI (penile erection index)” value came out at 1020 and the responding rats % is recorded as 85%. In addition, the “concentration giving maximum increase of cGMP levels” value in data set [3] (NO donor added (10 μM SNP)) is “about 4000 nM”. Also, the “effect on cGMP accumulation compared with sildenafil” value in data set [3] (NO donor added (10 μM SNP), at 10,000 nM) is given as “better effect than sildenafil”. The “effect on the levels of cGMP” value in data set [3] is listed as “very little effect; also recorded: weak effect”.

Regarding `Cc1ccc(S(=O)(=O)NN2CCN(C)CC2)cc1` [R0=—CH3; R1=—CH3; n=0 (Table 6)], in data set [2], the “PEI (penile erection indexes) for selected molecules” value came out at 90.

Regarding `CN1CCN(NS(=O)(=O)c2ccccc2)CC1` [R0=—CH3; R1=—H; n=0 (Table 6)], in data set [2], the “PEI (penile erection indexes) for selected molecules” value was 80.

In the case of `Cc1ccc(S(=O)(=O)N2CCN(C)CC2)cc1` [R0=—CH3; R1=—CH3 (Table 4)], the “PEI (penile erection indexes) for selected molecules” value in data set [2] is reported as 240.

As for `CN1CCN(S(=O)(=O)c2ccccc2)CC1` [R0=—CH3; R1=—H (Table 4)], in data set [2], the “PEI (penile erection indexes) for selected molecules” value was 420.

These data come from patent publication US7084144B2, “Sulfonyl group containing compounds and their use for the treatment of erectile dysfunction” (The Jordanian Pharmaceutical MFG & Medical Equipment CO LTD, priority 2000, dated 2006).
